{"source": "patent US20260207604A1", "about": "“COMPOUND AND USE THEREOF” (ONQUALITY PHARMACEUTICALS CHINA LTD., priority 2022, published 2026)", "key": {"[1]": {"test": "Intestinal tissue distribution study following a single oral administration in rats", "format": "in vivo, Sprague Dawley rats", "details": "male rats, single oral 25 mg/kg; for Kp: read-out: Tissue-to-plasma concentration ratio", "description": "Nine male Sprague Dawley rats were orally administered Compound 1 at a dose of 25 mg/kg with a dosing volume of 10 mL/kg using purified water as the vehicle. At 0.25, 2, and 6 hours post-dosing, three animals were euthanized at each time point. A 200 μL whole blood sample was collected via cardiac puncture and plasma was separated by centrifugation.\nThe duodenum, jejunum, ileum, and colon were collected, contents removed, rinsed with ice-cold water, and surface moisture was blotted with filter paper before weighing. For each gram of tissue, 5 mL of methanol-water (1:3, v/v) was added for homogenization. The drug concentrations in plasma and intestinal tissue homogenates of each intestinal segment tissue were measured using LC-MS/MS."}, "[2]": {"test": "Single-dose intravenous and oral pharmacokinetic study in rats", "format": "in vivo, Sprague-Dawley (SD) rats", "details": "male SD rats", "description": "Six male Sprague-Dawley (SD) rats were randomly divided into two groups, with three rats in each group. Compound 1 was administered either by intravenous injection at a dose of 2 mg/kg or by oral gavage at a dose of 10 mg/kg. The dosing volumes were 5 mL/kg for intravenous administration and 10 mL/kg for oral administration, with purified water used as the solvent. For the intravenous group, blood samples were collected at 0.083, 0.25, 0.5, 1, 2, 4, 6, 8, and 24 hours post-dose. For the oral group, blood samples were collected at 0.25, 0.5, 1, 2, 4, 6, 8, and 24 hours post-dose. Plasma samples were prepared by centrifugation and stored at −70° C. The plasma concentration of Compound 1 was determined using LC-MS/MS."}, "[3]": {"details": "Sprague-Dawley, rat, IV 2 mg/kg, plasma"}}, "note": "Read-outs that look alike come from different tables or passages of the source.", "data": [{"smiles": "CC(=O)c1c(C)c2c(n(C3CCCC3)c1=O)=NC(Nc1ccc(N3CCN(S(=O)(=O)NCCN)CC3)cn1)NC=2", "note": "(centres unmarked) [Compound 1]", "values": [{"measurement": "Kp", "setting": "[1]; Sprague Dawley, rat, Colon, ratio of AUC values", "result": 502}, {"measurement": "Kp", "setting": "[1]; Sprague Dawley, rat, Ileum, ratio of AUC values", "result": 4750}, {"measurement": "Kp", "setting": "[1]; Sprague Dawley, rat, Jejunum, ratio of AUC values", "result": 4300}, {"measurement": "AUC(0-t)", "setting": "[1]; Sprague Dawley, rat, Plasma, read-out: AUC0-t", "result": 1.26, "unit": "ng·h/mL"}, {"measurement": "AUC(0-t)", "setting": "[1]; Colon", "result": 632, "unit": "ng·h/g"}, {"measurement": "AUC(0-t)", "setting": "[1]; Duodenum", "result": 19300, "unit": "ng·h/g"}, {"measurement": "Tissue-to-plasma concentration ratio", "setting": "[1]; Duodenum, ratio of AUC values", "result": 15300}, {"measurement": "AUC(0-t)", "setting": "[1]; Ileum", "result": 5980, "unit": "ng·h/g"}, {"measurement": "AUC(0-t)", "setting": "[1]; Jejunum", "result": 5420, "unit": "ng·h/g"}, {"measurement": "AUC(0-t)", "setting": "[2]; [3]", "result": "602 ± 161", "unit": "ng·h/mL"}, {"measurement": "clearance", "setting": "[2]; [3]", "result": "56.7 ± 17.3", "unit": "mL/min/kg"}, {"measurement": "half-life", "setting": "[2]; [3]", "result": "5.55 ± 0.503", "unit": "h"}, {"measurement": "Vd", "setting": "[2]; Sprague-Dawley, rat, IV 2 mg/kg, plasma, read-out: Vdss", "result": "9.61 ± 5.43", "unit": "L/kg"}, {"measurement": "plasma concentrations following oral administration", "setting": "[2]; PO 10 mg/kg, all samples 0.25-24 h, below the lower limit of quantification", "result": "< 1", "unit": "ng/mL"}]}]}
